This is an account of results in patent US20240269139A1, “COMPOUNDS FOR TARGETED PROTEIN DEGRADATION OF KINASES” (DANA-FARBER CANCER INSTITUTE, INC., priority 2020, published 2024).

Type in all cases: cell-based
Test [1] concerns the target protein kinases (human kinome) (Homo sapiens, UniProt O43683). As to conditions: for logFC: BUB1 (O43683); for logFC BUB1 (O43683): direction down; for BUB1 degradation: MOLT-4 and MM.1S cell lines.
The target of test [2] is protein kinases (human kinome) (Homo sapiens, UniProt Q14289). The conditions noted are these: for logFC: PTK2B (Q14289-1) protein abundance, degrader vs DMSO, down.
Sequence of protein kinases (human kinome) (Homo sapiens, UniProt Q14289) (Q14289 whole entry): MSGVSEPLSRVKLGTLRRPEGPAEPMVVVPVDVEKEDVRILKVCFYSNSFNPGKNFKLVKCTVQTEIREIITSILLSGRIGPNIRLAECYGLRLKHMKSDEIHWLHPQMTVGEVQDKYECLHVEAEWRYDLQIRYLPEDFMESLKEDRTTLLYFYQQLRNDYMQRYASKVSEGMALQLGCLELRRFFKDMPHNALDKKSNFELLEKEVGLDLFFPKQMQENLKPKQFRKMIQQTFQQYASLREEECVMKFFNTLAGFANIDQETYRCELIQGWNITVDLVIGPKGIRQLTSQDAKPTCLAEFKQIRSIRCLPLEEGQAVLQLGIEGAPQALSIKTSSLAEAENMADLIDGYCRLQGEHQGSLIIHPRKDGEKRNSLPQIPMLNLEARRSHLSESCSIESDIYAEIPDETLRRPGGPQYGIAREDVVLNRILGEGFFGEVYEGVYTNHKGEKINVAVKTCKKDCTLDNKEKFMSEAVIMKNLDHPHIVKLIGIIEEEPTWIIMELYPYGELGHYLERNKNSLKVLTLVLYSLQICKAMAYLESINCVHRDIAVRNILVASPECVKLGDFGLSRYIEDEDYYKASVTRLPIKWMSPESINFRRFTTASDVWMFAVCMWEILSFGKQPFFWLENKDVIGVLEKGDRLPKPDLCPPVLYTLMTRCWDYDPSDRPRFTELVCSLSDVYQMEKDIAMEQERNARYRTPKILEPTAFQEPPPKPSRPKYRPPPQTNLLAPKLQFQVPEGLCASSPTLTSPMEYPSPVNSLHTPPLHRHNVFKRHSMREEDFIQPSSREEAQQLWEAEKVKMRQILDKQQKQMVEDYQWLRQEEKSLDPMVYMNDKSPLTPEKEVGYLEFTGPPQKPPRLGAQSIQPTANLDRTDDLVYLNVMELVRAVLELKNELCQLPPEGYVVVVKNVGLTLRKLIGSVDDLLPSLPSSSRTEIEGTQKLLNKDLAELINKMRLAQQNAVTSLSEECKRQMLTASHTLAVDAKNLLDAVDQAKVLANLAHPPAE
Test [3] addresses T1, protein kinases (human kinome) (Homo sapiens, UniProt Q8TAS1).
T1 sequence (Q8TAS1 1-419): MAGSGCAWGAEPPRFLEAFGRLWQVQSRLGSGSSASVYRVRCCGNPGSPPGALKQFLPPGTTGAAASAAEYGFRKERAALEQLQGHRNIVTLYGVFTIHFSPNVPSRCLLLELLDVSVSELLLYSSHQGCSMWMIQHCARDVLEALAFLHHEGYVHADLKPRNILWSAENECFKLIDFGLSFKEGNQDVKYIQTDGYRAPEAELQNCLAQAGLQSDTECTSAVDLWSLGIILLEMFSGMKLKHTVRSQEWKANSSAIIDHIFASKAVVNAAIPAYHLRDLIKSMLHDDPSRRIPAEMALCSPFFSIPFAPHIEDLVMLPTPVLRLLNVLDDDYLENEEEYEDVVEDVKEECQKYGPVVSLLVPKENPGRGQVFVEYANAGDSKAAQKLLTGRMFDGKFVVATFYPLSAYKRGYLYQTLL

Test [4] has as its target protein kinases (human kinome) (Homo sapiens, UniProt Q15119). The conditions noted are these: experiment wp056.
The target of test [5] is protein kinases (human kinome) (Homo sapiens, UniProt Q8NI60). The conditions noted are these: experiment wp056.
Sequence of protein kinases (human kinome) (Homo sapiens, UniProt Q8NI60) (Q8NI60 163-647): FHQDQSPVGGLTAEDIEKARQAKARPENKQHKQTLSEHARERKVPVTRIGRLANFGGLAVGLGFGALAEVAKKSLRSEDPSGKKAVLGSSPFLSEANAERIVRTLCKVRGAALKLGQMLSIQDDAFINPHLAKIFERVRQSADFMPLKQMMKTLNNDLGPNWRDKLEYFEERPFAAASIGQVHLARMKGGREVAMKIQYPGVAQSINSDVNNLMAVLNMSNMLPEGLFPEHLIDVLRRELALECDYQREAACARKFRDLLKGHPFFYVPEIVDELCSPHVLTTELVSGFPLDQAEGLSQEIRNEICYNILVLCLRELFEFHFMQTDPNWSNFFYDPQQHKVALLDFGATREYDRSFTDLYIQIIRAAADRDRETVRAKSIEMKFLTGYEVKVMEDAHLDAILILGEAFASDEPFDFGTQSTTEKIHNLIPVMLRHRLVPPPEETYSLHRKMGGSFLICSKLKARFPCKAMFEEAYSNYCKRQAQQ
Test [6] addresses T2, protein kinases (human kinome) (Homo sapiens, UniProt Q969Z0).
T2 sequence (Q969Z0 108-631): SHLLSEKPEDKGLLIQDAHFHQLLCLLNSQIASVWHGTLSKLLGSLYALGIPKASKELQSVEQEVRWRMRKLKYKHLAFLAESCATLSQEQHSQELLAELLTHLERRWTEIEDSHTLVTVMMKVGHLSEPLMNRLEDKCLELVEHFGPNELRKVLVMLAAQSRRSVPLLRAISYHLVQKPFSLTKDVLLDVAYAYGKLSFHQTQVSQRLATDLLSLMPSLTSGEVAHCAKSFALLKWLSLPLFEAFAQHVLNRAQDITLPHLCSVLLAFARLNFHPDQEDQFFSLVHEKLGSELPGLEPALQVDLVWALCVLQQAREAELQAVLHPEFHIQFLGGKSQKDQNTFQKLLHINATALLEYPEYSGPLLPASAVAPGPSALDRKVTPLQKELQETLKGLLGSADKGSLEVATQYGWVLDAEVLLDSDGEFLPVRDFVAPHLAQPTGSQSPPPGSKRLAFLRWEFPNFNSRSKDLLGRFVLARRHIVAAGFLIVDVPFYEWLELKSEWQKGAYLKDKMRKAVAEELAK
The conditions noted are these: Accession Q969Z0-1; experiment wp081; direction down.

The mark [7] stands for this setting: accession Q14289-1, experiment wp045, direction of change down.
Where [8] appears, read: accession Q14289-1, experiment wp146, direction of change down.
Setting [9] is: Accession Q8TAS1, experiment wp076, direction down.
[10] abbreviates: UHMK1 (Q8TAS1), experiment wp076.

Like-named read-outs stand apart in the source and are kept apart here.

Sequence of protein kinases (human kinome) (Homo sapiens, UniProt O43683) (O43683 whole entry): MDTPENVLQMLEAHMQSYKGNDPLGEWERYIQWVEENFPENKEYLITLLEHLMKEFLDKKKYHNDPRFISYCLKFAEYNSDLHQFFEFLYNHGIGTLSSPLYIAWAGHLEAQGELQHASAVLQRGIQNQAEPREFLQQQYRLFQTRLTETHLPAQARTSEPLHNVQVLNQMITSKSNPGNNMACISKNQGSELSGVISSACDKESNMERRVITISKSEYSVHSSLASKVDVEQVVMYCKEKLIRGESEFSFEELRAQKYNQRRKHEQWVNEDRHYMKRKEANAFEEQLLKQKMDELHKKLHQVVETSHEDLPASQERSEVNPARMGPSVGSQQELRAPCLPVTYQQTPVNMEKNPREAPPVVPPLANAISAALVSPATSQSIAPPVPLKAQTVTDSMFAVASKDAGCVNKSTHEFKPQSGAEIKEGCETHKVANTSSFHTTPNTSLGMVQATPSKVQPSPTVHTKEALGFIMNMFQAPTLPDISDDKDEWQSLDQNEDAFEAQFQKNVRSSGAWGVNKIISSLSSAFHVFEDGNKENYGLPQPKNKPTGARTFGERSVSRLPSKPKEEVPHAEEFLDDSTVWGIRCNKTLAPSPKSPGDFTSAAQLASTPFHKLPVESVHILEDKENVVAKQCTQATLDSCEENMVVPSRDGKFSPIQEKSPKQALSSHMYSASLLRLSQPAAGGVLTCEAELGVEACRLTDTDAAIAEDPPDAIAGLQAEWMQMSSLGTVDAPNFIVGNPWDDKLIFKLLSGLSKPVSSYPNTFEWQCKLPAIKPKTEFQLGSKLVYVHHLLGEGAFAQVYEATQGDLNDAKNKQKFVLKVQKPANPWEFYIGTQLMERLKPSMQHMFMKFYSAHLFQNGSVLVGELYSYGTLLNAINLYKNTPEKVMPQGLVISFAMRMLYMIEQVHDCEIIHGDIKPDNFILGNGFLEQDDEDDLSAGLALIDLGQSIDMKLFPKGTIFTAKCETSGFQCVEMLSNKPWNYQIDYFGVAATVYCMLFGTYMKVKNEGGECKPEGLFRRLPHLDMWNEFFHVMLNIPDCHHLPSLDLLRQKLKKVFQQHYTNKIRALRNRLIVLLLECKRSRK

In the case of `Cc1ccc(NC(=O)c2cccc(C(F)(F)F)c2)cc1N1Cc2cnc(Nc3ccc(N4CCN(Cc5cn(CCCCCOc6cccc7c6C(=O)N(C6CCC(=O)NC6=O)C7=O)nn5)CC4)nc3)nc2N(C)C1=O` (stereo not drawn) [DB0646, N-(3-(7-((6-(4-((1-(5-((2-(2,6-Dioxopiperidin-3-yl)-1,3-dioxoisoindolin-4-yl)oxy)pentyl)-1H-1,2,3-triazol-4-yl)methyl)piperazin-1-v)pyridin-3-yl)amino)-1-methyl-2-oxo-1,4-dihydropyrimido[4,5-d]pyrimidin-3(2H)-yl)-4-methylphenyl)-3-(trifluoromethyl)benzamide], the logFC in test [1] (experiment wp045) was −0.3378; in test [1] (experiment wp117), −0.3423; in test [1] (experiment wp152) it was −0.4014; in test [2] (1 hr), −0.3955; in test [2] (2 hr), −1.235; in test [2] (4 hr), −2.341. Besides, the logFC in test [2] (8 hr) is listed as −2.599. Moreover, the “logFC BUB1 (O43683)” value is recorded as −0.3378 in test [1] (Experiment wp045), −0.3423 in test [1] (Experiment wp117) and −0.4014 in test [1] (Experiment wp152). In addition, in test [1], the BUB1 degradation result is “degraded”. Besides, in test [2] (Experiment wp152, direction of change down), the “logFC PTK2B (Q14289)” value is recorded as −2.998. The “logFC PTK2B” value in test [2] (setting [7]) is given as −2.774; in test [2] (accession Q14289-1, experiment wp114, direction of change down) it was −1.358; in test [2] (accession Q14289-1, experiment wp160, 1 hr, direction of change down), −0.3955; in test [2] (accession Q14289-1, experiment wp160, 2 hr, direction of change down), −1.235; in test [2] (accession Q14289-1, experiment wp160, 4 hr, direction of change down), −2.341; in test [2] (accession Q14289-1, experiment wp160, 8 hr, direction of change down), −2.599. For the same compound, the “logFC PTK2B” value in test [2] (accession Q14289, experiment wp152, direction of change down) is recorded as −2.998. The “logFC UHMK1” value is −0.3263 in test [3] (Accession Q8TAS1, experiment wp107, direction down); −0.4722 in test [3] (Accession Q8TAS1, experiment wp117, direction down); −0.4468 in test [3] (Accession Q8TAS1, experiment wp160, 2 hr, direction down); −0.7551 in test [3] (Accession Q8TAS1, experiment wp160, 4 hr, direction down); −0.5196 in test [3] (Accession Q8TAS1, experiment wp160, 8 hr, direction down); −0.3945 in test [3] (UHMK1 (Q8TAS1), experiment wp045). The “logFC UHMK1” value in test [3] (UHMK1 (Q8TAS1), experiment wp107) is listed as −0.3263; in test [3] (UHMK1 (Q8TAS1), experiment wp117), −0.4722; in test [3] (UHMK1 (Q8TAS1), experiment wp160, 2 hr), −0.4468; in test [3] (UHMK1 (Q8TAS1), experiment wp160, 4 hr), −0.7551; in test [3] (UHMK1 (Q8TAS1), experiment wp160, 8 hr), −0.5196. For the same compound, the “logFC UHMK1 (Q8TAS1)” value in test [3] (experiment wp045) is reported as −0.3945.

Turning to `CS(=O)(=O)Nc1cccc(-c2csc3cnc(Nc4ccc(N5CCN(CCOCCOCCOc6cccc7c6C(=O)N(C6CCC(=O)NC6=O)C7=O)CC5)cc4)nc23)c1` (stereo not drawn) [RSS0628], the logFC in test [2] is −1.517. Further, the “logFC PTK2B” value in test [2] (setting [7]) was −1.517.

Compound `CS(=O)(=O)Nc1cccc(-c2csc3cnc(Nc4ccc(N5CCN(CCCCCOc6cccc7c6C(=O)N(C6CCC(=O)NC6=O)C7=O)CC5)cc4)nc23)c1` (stereo not drawn) [DB0614, N-(3-(2-((4-(4-(5-((2-(2,6-Dioxopiperidin-3-yl)-1,3-dioxoisoindolin-4-yl)oxy)pentyl)piperazin-1-yl)phenyl)amino)thieno[3,2-d]pyrimidin-7-yl)phenyl)methanesulfonamide] showed a logFC in test [2] of −1.425. The “logFC PTK2B” value in test [2] (setting [7]) was −1.425.

With `NC(=O)c1c(F)cccc1Nc1nc(Nc2ccc(S(=O)(=O)NCCOCCOCCOCCOCCNc3cccc4c3C(=O)N(C3CCC(=O)NC3=O)C4=O)cc2)ncc1Br` (stereo not drawn) [TMX.02.138], in test [2], the logFC is listed as −1.24. Besides, the “logFC PTK2B” value in test [2] (setting [8]) was −1.24.

As for `Cc1ccc(NC(=O)c2cccc(C(F)(F)F)c2)cc1N1Cc2cnc(Nc3ccc(N4CCN(CCCCCCOc5cccc6c5C(=O)N(C5CCC(=O)NC5=O)C6=O)CC4)nc3)nc2N(C)C1=O` (stereo not drawn) [DB0663], the logFC in test [2] is listed as −1.961. For the same compound, the “logFC PTK2B” value in test [2] (setting [7]) is −1.961.

Regarding `Cc1ccc(C(=O)Nc2ccc(CN3CCN(CCCOCCOCCOCCNC(=O)COc4cccc5c4C(=O)N(C4CCC(=O)NC4=O)C5=O)CC3)c(C(F)(F)F)c2)cc1C#Cc1cnc2cccnn12` (stereo not drawn) [SB1.G.187], the “logFC PDK2” value in test [4] (Accession Q15119-1) was −0.4016. Also, in test [4], the “logFC PDK2 (Q15119-1)” value is listed as −0.4016. For the same compound, in test [5], the “logFC COQ8A (Q8N160-1)” value is listed as −0.3885 and the “logFC COQ8A (Q8NI60-1)” value is on record as −0.3885.

Compound `O=C1CCC(N2C(=O)c3cccc(NCCCCCCCCN4CCC(NC(=O)c5[nH]ncc5NC(=O)c5c(Cl)cccc5Cl)CC4)c3C2=O)C(=O)N1` (stereo not drawn) [MFH.5.126.1] registered a logFC in test [1] (experiment wp076) of −0.9248. In addition, the “logFC BUB1 (O43683)” value in test [1] (Experiment wp076) was −0.9248. The “logFC UHMK1” value in test [3] (setting [9]) and in test [3] (setting [10]) was −0.4789 in each case.

Turning to `Cc1ncsc1-c1ccc([C@H](C)NC(=O)[C@@H]2C[C@@H](O)CN2C(=O)[C@@H](NC(=O)CCOCCOCCN2CCN(c3ccc(Nc4ncc(Cl)c(Nc5ccccc5S(=O)(=O)C(C)C)n4)cc3)CC2)C(C)(C)C)cc1` [FMF.06.098.1], the “logFC UHMK1” value is on record as −0.3878 in test [3] (Accession Q8TAS1, experiment wp108, direction down) and −0.3878 in test [3] (UHMK1 (Q8TAS1), experiment wp108).

Regarding `Cc1cc(Nc2ncc(Br)c(Nc3cccc(F)c3C(N)=O)n2)ccc1S(=O)(=O)NCCOCCOCCOCCOCCNc1cccc2c1C(=O)N(C1CCC(=O)NC1=O)C2=O` (stereo not drawn) [TMX.02.174], the logFC in test [2] was −1.512. Besides, in test [2] (setting [8]), the “logFC PTK2B” value is −1.512.

Turning to `CC(C)S(=O)(=O)c1ccccc1Nc1nc(Nc2ccc(N3CCN(CCOCCNC(=O)CNc4cccc5c4C(=O)N(C4CCC(=O)NC4=O)C5=O)CC3)cc2)ncc1Cl` (stereo not drawn) [SK-3-91], the BUB1 degradation entry in test [1] is given as “degraded”.

The compound `CC(C)S(=O)(=O)c1ccccc1Nc1nc(Nc2ccc(N3CCN(CCOCCNC(=O)CNc4ccc5c(c4)C(=O)N(C4CCC(=O)NC4=O)C5=O)CC3)cc2)ncc1Cl` (stereo not drawn) [SK.3.93] returned a logFC in test [2] of −3.269. Also, the “logFC PTK2B” value in test [2] (accession Q14289-1, experiment wp016, direction of change down) was −3.269.

Compound `Cc1ccc(NC(=O)c2cccc(C(F)(F)F)c2)cc1N1Cc2cnc(Nc3ccc(N4CCN(CCCOc5cccc6c5C(=O)N(C5CCC(=O)NC5=O)C6=O)CC4)nc3)nc2N(C)C1=O` (stereo not drawn) [DB0662] came in with a logFC in test [1] (experiment wp168) of −0.3382. Moreover, in test [1] (Experiment wp168), the “logFC BUB1 (O43683)” value is −0.3382. For the same compound, the “logFC UHMK1” value in test [3] (Accession Q8TAS1, experiment wp168, direction down) is −0.3949; in test [3] (UHMK1 (Q8TAS1), experiment wp168), −0.3949.

With `Cn1c(=O)c(-c2c(Cl)cccc2Cl)cc2cnc(Nc3ccc(OCCNC(=O)CCCCCCNC(=O)COc4cccc5c4C(=O)N(C4CCC(=O)NC4=O)C5=O)cc3)nc21` (stereo not drawn) [SB1.G.192.1], the “logFC TBRG4” value in test [6] is −0.3452.

`CCc1cnn2c(N(Cc3ccc(N)nc3)C(=O)CCOCCOCCOCCNC(=O)CNc3cccc4c3C(=O)N(C3CCC(=O)NC3=O)C4=O)cc(N3CCCC[C@H]3CCO)nc12` (stereo partly drawn) [MFH.5.115.2] showed a logFC in test [1] (experiment wp076) of −0.5159. Besides, the “logFC BUB1 (O43683)” value in test [1] (Experiment wp076) is on record as −0.5159. Besides, the “logFC UHMK1” value in test [3] (setting [9]) and in test [3] (setting [10]) was −0.8774 in each case.
